According to patent publication US9000189B2, “Biphenyl-substituted spirocyclic ketoenols” (Bayer CropScience AG, priority 2006, dated 2015):
Read-outs that look alike come from different tables or passages of the source. Each block holds one compound with its values, some of them ahead of it.

Assays:
[1] = Determination of the log P values by HPLC on a reversed-phase column (C18), acidic range; assay type: physicochemical; conditions: HPLC reversed-phase C18, 43° C., acidic range (pH 2.3)
Procedure: Determination of the Log P Values
The log P values given in the table were determined in accordance with EEC Directive 79/831 Annex V.A8 by HPLC (High Performance Liquid Chromatography) on a reversed-phase column (C18). Temperature: 43° C.
Mobile phases for the determination in the acidic range (pH 2.3): 0.1% aqueous phosphoric acid, acetonitrile; linear gradient from 10% acetonitrile to 90% acetonitrile
The calibration was carried out using unbranched alkan-2-ones (having 3 to 16 carbon atoms) with known log P values (determination of the log P values by the retention times using linear interpolation between two successive alkanones).
The lambda max values were determined in the maxima of the chromatographic signals using the UV spectra from 200 nm to 400 nm.

[2] = system: green peach aphid (Myzus persicae); assay: Example 3: Myzus test (MYZUPE spray treatment); assay type: in vivo; conditions: 144 h, read-out: efficacy (effect in %, aphids killed)
[3] = system: larvae of the mustard beetle (Phaedon cochleariae); assay: Example 1: Phaedon test (PHAECO spray treatment); conditions: 168 h, read-out: efficacy (effect in %, beetle larvae killed)
[4] = system: caterpillars of the army worm (Spodoptera frugiperda); assay: Example 2: Spodoptera frugiperda test (SPODFR spray treatment); assay type: in vivo; conditions: application rate 100 g/ha, after 7 d
[5] = system: cotton aphid (Aphis gossypii); assay: Example 14: Aphis gossypii test (spray to runoff, with ammonium salts and penetrants); assay type: in vivo; conditions: for Kill (%) after 6 d +AS + RME 1000 ppm each: + AS and RME 1000 ppm each; for Kill (%) after 6 d +AS 1000 ppm: + ammonium sulphate 1000 ppm; for Kill (%) after 6 d +RME 1000 pm: + rapeseed oil methyl ester; for Kill (%) after 6 d: active compound alone
Source text: (§1) Solvent: 7 parts by weight of dimethylformamide
(§2) Emulsifier: 2 parts by weight of alkylaryl polyglycol ether
(§3) For application with ammonium salts or phosphonium salts and penetration promoters (rapeseed oil methyl ester 500 EW) these are in each case added in a concentration of 1000 ppm to the spray liquor.
Cotton plants (Gossypium hirsutum) which are heavily infested by the cotton aphid (Aphis gossypii) are sprayed to runoff point with the preparation of active compound at the desired concentration.
(§4) After the desired period of time, the kill in % is determined.

[6] = system: green peach aphid (Myzus persicae); assay: Example 13: activity boost through ammonium/phosphonium salts in combination with penetrants, Myzus persicae test; assay type: in vivo; conditions: for Kill (%) after 6 d +RME 1000 pm: +RME 1000 pm (rapeseed oil methyl ester 500 EW); for Kill (%) after 6 d: no additive, bell pepper plants sprayed to runoff
Source text: Activity Boost Through Ammonium/Phosphonium Salts in Combination with Penetrants
as §1, §2, §3
Bell pepper plants (Capsicum annuum) heavily infested by the green peach aphid (Myzus persicae) are sprayed to runoff point with the preparation of active compound at the desired concentration.
as §4

[7] = Example A: penetration of active compounds through enzymatically isolated cuticles of apple leaves; assay type: in vitro ADME, apple trees of the Golden Delicious variety; conditions: 500 ppm in DMF/emulsifier W 7:1 (w/w), 20° C., 60% rh
Source text: Boosting of the penetration into the plant by ammonium salts or phosphonium salts, and synergistic boosting of penetration into the plants by ammonium/phosphonium salts in combination with penetration promoters
This test measured the penetration of active compounds through enzymatically isolated cuticles of apple leaves.
The leaves used were cut in the fully developed state from apple trees of the Golden Delicious variety. The cuticles were isolated as follows: • first of all, leaf discs labelled on the underside with dye and formed by punching were filled by means of vacuum infiltration with a pectinase solution (0.2% to 2% strength) buffered to a pH of between 3 and 4, • sodium azide was then added and • the leaf discs thus treated were left to stand until the original leaf structure broke down and the non-cellular cuticle underwent detachment.
After that, only those cuticles from the top leaf sides that were free from stomata and hairs were used. They were washed a number of times in alternation with water and a buffer solution of pH 7. The clean cuticles obtained were, finally, applied to Teflon plaques, smoothed with a gentle jet of air, and dried.
In the next step the cuticular membranes obtained in this way were placed in stainless steel diffusion cells (=transport chambers) for the purpose of membrane transport investigations. […]
The diffusion cells were filled with a 30% strength ethylene glycol/water solution. Penetration was determined by applying 10 μl of the spray liquor of the composition below to the outer side of each of the cuticles. […]
After the spray liquors had been applied, the water was evaporated and the chambers were inverted and placed into theromstated troughs, in which the temperature and humidity over the cuticles was adjustable by means of a gentle stream of air onto the cuticles, with the spray coating (20° C., 60% rh). At regular intervals, samples were taken using an autosampler, and the amount of active compound was determined using HPLC. […]

[8] = application rate 500 g/ha, after 6 d
[9] = reversed-phase HPLC column (C18)

Compound: O=C1OC2(CCCC2)C(O)=C1c1cc(-c2ccc(F)c(F)c2)ccc1Cl [Example I-2-a-2]
logP [1]: 3.19

Compound: O=C1OC2(CCCC2)C(O)=C1c1cc(-c2ccc(F)cc2)ccc1Cl [Example I-2-a-7]
logP [1]: 3.09

Compound: Cc1ccc(-c2ccc(F)c(Cl)c2)cc1C1=C(O)C2(CCCC2)OC1=O [Example I-2-a-4]
logP [1]: 3.50

Compound: Cc1ccc(-c2ccc(F)c(F)c2)c(C)c1C1=C(OC(=O)C(C)C)C2(CCOCC2)OC1=O [Example I-2-b-3]
pest or weed control at 500 g/ha [2, 8]: ≥ 80%

Compound: CCC(=O)OC1=C(c2c(C)ccc(-c3ccc(F)cc3)c2C)C(=O)NC12CCOCC2 [Example I-1-b-1]
pest or weed control at 500 g/ha [2, 8]: ≥ 80%

Compound: CCOC(=O)OC1=C(c2cc(-c3ccc(F)cc3)ccc2C)C(=O)OC12CCCCC2 [Example I-2-c-1]
pest or weed control at 500 g/ha [3]: ≥ 80% | chromatographic logP [1]: 4.84 | pest or weed control at 500 g/ha [2]: ≥ 80%

Compound: O=C1OC2(CCCCC2)C(O)=C1c1cc(-c2cc(F)c(F)c(F)c2)ccc1Cl [Example I-2-a-9]
logP [1]: 3.65

Compound: CCOC(=O)OC1=C(c2c(C)ccc(-c3ccc(F)cc3)c2C)C(=O)NC12CCOCC2 [Example I-1-c-1]
pest or weed control at 500 g/ha [2, 8]: ≥ 80%

Compound: O=C1OC2(CCCC2)C(O)=C1c1cc(-c2ccc(F)cc2F)ccc1Cl [Example I-2-a-5]
logP [1]: 3.16

Compound: O=C1OC2(CCCCC2)C(O)=C1c1cc(-c2ccc(F)c(F)c2)ccc1Cl [Example I-2-a-8]
logP [1]: 3.48

Compound: Cc1ccc(-c2ccc(F)cc2)cc1C1=C(O)C2(CCOCC2)OC1=O [Example I-2-a-12]
logP [1]: 2.62

Compound: O=C1OC2(CCCC2)C(O)=C1c1cc(-c2cc(F)c(F)c(F)c2)ccc1Cl [Example I-2-a-6]
logP [1]: 3.35 | efficacy (effect in %, caterpillars killed) [4]: ≥ 80%

Compound: Cc1ccc(-c2ccc(F)cc2)cc1C1=C(O)C2(CCCCC2)OC1=O [Example I-2-a-15]
pest or weed control at 500 g/ha [3]: ≥ 80% | chromatographic logP [1]: 3.4 | pest or weed control at 500 g/ha [2]: ≥ 80%

Compound: Cc1ccc(-c2ccc(F)cc2)cc1C1=C(O)C2(CCOCC2)NC1=O [Example I-1-a-1]
Kill (%) after 6 d +AS + RME 1000 ppm each ([5]; 4 ppm): 60% | Kill (%) after 6 d +AS 1000 ppm ([5]; 4 ppm): 0% | Kill (%) after 6 d +RME 1000 pm ([5]; 4 ppm): 0% | Kill (%) after 6 d ([5]; 4 ppm): 0% | Kill (%) after 6 d +AS + RME 1000 ppm each ([5]; 20 ppm): 80% | Kill (%) after 6 d +AS 1000 ppm ([5]; 20 ppm): 5% | Kill (%) after 6 d +RME 1000 pm ([5]; 20 ppm): 15% | Kill (%) after 6 d ([5]; 20 ppm): 0% | pest or weed control at 500 g/ha [3]: ≥ 80% | pest or weed control at 500 g/ha [2, 8]: ≥ 80% | Kill (%) after 6 d +AS 1000 ppm ([6]; 0.8 ppm active compound): 0% | Kill (%) after 6 d +AS + RME 1000 ppm each ([6]; 0.8 ppm active compound): 15% | Kill (%) after 6 d +RME 1000 pm ([6]; 0.8 ppm active compound): 0% | Kill (%) after 6 d ([6]; 0.8 ppm active compound): 0% | Kill (%) after 6 d +AS 1000 ppm ([6]; 4 ppm active compound): 15% | Kill (%) after 6 d +AS + RME 1000 ppm each ([6]; 4 ppm active compound): 99% | Kill (%) after 6 d +RME 1000 pm ([6]; 4 ppm active compound): 70% | Kill (%) after 6 d ([6]; 4 ppm active compound): 0%

Compound: COc1ccc(-c2ccc(C)c(C3=C(O)C4(CCOCC4)NC3=O)c2)cc1F [Example I-1-a-2]
pest or weed control at 500 g/ha [3]: ≥ 80% | pest or weed control at 500 g/ha [2, 8]: ≥ 80%

Compound: O=C1OC2(CCCCC2)C(O)=C1c1cc(-c2ccc(F)cc2)ccc1Cl [Example I-2-a-10]
logP [1]: 3.37

Compound: COC1=C(c2c(C)ccc(-c3ccc(F)cc3)c2C)C(=O)NC12CCOCC2 [Example I-1-f-1]
pest or weed control at 500 g/ha [3]: ≥ 80% | pest or weed control at 500 g/ha [2, 8]: ≥ 80%

Compound: Cc1ccc(-c2ccc(F)cc2)c(C)c1C1=C(OC(=O)C(C)C)C2(CCOCC2)OC1=O [Example I-2-b-2]
pest or weed control at 500 g/ha [3]: ≥ 80%

chromatographic logP [1, 9]: 4.85
Compound: Cc1ccc(-c2ccc(F)cc2)cc1C1=C(OC(=O)C(C)C)C2(CCCC2)OC1=O [Example I-2-b-1]

chromatographic logP [1, 9]: 3.12
Compound: Cc1ccc(-c2ccc(F)cc2)cc1C1=C(O)C2(CCCC2)OC1=O [Example I-2-a-1]
pest or weed control at 500 g/ha [3]: ≥ 80% | pest or weed control at 500 g/ha [2, 8]: ≥ 80%

Compound: Cc1ccc(-c2ccc(F)cc2)c(C)c1C1=C(O)C2(CCOCC2)NC1=O [Example I-1-a-4]
Penetration after 24 h/% EC ([7]; EC alone, average of 8 to 10 measurements): 3% | Penetration after 24 h/% EC + RME (1 g/l) + AS (1 g/l) ([7]; with rapeseed oil methyl ester 1 g/l and ammonium sulphate 1 g/l): 30% | Penetration after 24 h/% EC + RME (1 g/l) ([7]; with rapeseed oil methyl ester 1 g/l): 8% | Kill (%) after 6 d +AS 1000 ppm ([6]; 0.8 ppm active compound): 0% | Kill (%) after 6 d +AS + RME 1000 ppm each ([6]; 0.8 ppm active compound): 5% | Kill (%) after 6 d +RME 1000 pm ([6]; 0.8 ppm active compound): 0% | Kill (%) after 6 d ([6]; 0.8 ppm active compound): 0% | Kill (%) after 6 d +AS 1000 ppm ([6]; 4 ppm active compound): 20% | Kill (%) after 6 d +AS + RME 1000 ppm each ([6]; 4 ppm active compound): 98% | Kill (%) after 6 d +RME 1000 pm ([6]; 4 ppm active compound): 5% | Kill (%) after 6 d ([6]; 4 ppm active compound): 15%

Compound: Cc1ccc(-c2ccc(F)c(F)c2)cc1C1=C(O)C2(CCCC2)OC1=O [Example I-2-a-3]
logP [1]: 3.25

Compound: Cc1ccc(-c2ccc(F)c(F)c2)cc1C1=C(O)C2(CCOCC2)OC1=O [Example I-2-a-13]
logP [1]: 2.69

chromatographic logP [1, 9]: 5.43
Compound: CCOC(=O)C1(OC(=O)Cc2cc(-c3ccc(F)cc3)ccc2C)CCCCC1 [III-1]

Compound: Cc1ccc(-c2ccc(F)cc2)c(C)c1C1=C(O)C2(CCOCC2)OC1=O [Example I-2-a-11]
logP [1]: 2.76

Compound: O=C1NC2(CCOCC2)C(O)=C1c1cc(-c2ccc(F)c(C(F)(F)F)c2)ccc1Cl [Example I-1-a-24]
pest or weed control at 500 g/ha [3]: ≥ 80% | pest or weed control at 500 g/ha [2, 8]: ≥ 80%

Compound: Cc1ccc(-c2cc(F)c(F)c(F)c2)cc1C1=C(O)C2(CCOCC2)OC1=O [Example I-2-a-14]
logP [1]: 2.87

chromatographic logP [1, 9]: 4.52
Compound: CCOC(=O)C1(OC(=O)Cc2cc(Br)ccc2C)CCCC1 [III-1′]

Compound: Cc1ccc(-c2ccc(F)c(F)c2)c(C)c1C1=C(O)C2(CCOCC2)OC1=O [Example I-2-a-16]
logP [1]: 2.88
